# What was measured:
# [1] = target: Vascular endothelial growth factor receptor 2 (Homo sapiens, UniProt P35968); assay: Inhibition of human N-terminal GST tagged VEGFR-2 expressed in baculovirus infected Sf9 cells using poly (Glu,Tyr) 4:1 as substrate in presence of ATP by Kinase-Glo luminescence assay
# [2] = target: Serine/threonine-protein kinase B-raf (Homo sapiens, UniProt P15056); assay: Inhibition of human wild type BRAF by Kinase-Glo luminescence assay
# [3] = test system: CCRF-CEM; assay: Growth inhibition of human CCRF-CEM cells at 10 uM incubated for 48 hrs by sulforhodamine B assay relative to control; type: functional; conditions: read-out: GI
# [4] = test system: K562; assay: Growth inhibition of human K562 cells at 10 uM incubated for 48 hrs by sulforhodamine B assay relative to control; type: functional; conditions: K562, 48 h, read-out: GI
# [5] = test system: MOLT-4; assay: Growth inhibition of human MOLT4 cells at 10 uM incubated for 48 hrs by sulforhodamine B assay relative to control; type: functional; conditions: MOLT-4, 48 h, read-out: GI
# [6] = test system: RPMI-8226; assay: Growth inhibition of human RPMI8226 cells at 10 uM incubated for 48 hrs by sulforhodamine B assay relative to control; type: functional; conditions: RPMI-8226, 48 h, read-out: GI
# [7] = test system: SR; assay: Growth inhibition of human SR cells at 10 uM incubated for 48 hrs by sulforhodamine B assay relative to control; type: functional; conditions: read-out: GI
# [8] = test system: A549; assay: Growth inhibition of human A549/ATCC cells at 10 uM incubated for 48 hrs by sulforhodamine B assay relative to control; type: functional; conditions: A549, 48 h, read-out: GI
# [9] = test system: EKVX; assay: Growth inhibition of human EKVX cells at 10 uM incubated for 48 hrs by sulforhodamine B assay relative to control; type: functional; conditions: read-out: GI
# [10] = test system: NCI-H226; assay: Growth inhibition of human NCI-H226 cells at 10 uM incubated for 48 hrs by sulforhodamine B assay relative to control; type: functional; conditions: NCI-H226, 48 h, read-out: GI
# [11] = test system: NCI-H23; assay: Growth inhibition of human NCI-H23 cells at 10 uM incubated for 48 hrs by sulforhodamine B assay relative to control; type: functional; conditions: NCI-H23, 48 h, read-out: GI
# [12] = test system: NCI-H460; assay: Growth inhibition of human NCI-H460 cells at 10 uM incubated for 48 hrs by sulforhodamine B assay relative to control; type: functional; conditions: NCI-H460, 48 h, read-out: GI
# [13] = test system: NCI-H522; assay: Growth inhibition of human NCI-H522 cells at 10 uM incubated for 48 hrs by sulforhodamine B assay relative to control; type: functional; conditions: NCI-H522, 48 h, read-out: GI
# [14] = test system: HCT-116; assay: Growth inhibition of human HCT116 cells at 10 uM incubated for 48 hrs by sulforhodamine B assay relative to control; type: functional; conditions: HCT-116, 48 h, read-out: GI
# [15] = test system: HCT-15; assay: Growth inhibition of human HCT15 cells at 10 uM incubated for 48 hrs by sulforhodamine B assay relative to control; type: functional; conditions: HCT-15, 48 h, read-out: GI
# [16] = test system: HT-29; assay: Growth inhibition of human HT-29 cells at 10 uM incubated for 48 hrs by sulforhodamine B assay relative to control; type: functional; conditions: HT-29, 48 h, read-out: GI
# [17] = test system: KM12; assay: Growth inhibition of human KM12 cells at 10 uM incubated for 48 hrs by sulforhodamine B assay relative to control; type: functional; conditions: KM12, 48 h, read-out: GI
# [18] = test system: SF-295; assay: Growth inhibition of human SF295 cells at 10 uM incubated for 48 hrs by sulforhodamine B assay relative to control; type: functional; conditions: SF-295, 48 h, read-out: GI
# [19] = test system: SF-539; assay: Growth inhibition of human SF539 cells at 10 uM incubated for 48 hrs by sulforhodamine B assay relative to control; type: functional; conditions: SF-539, 48 h, read-out: GI
# [20] = test system: LOX IMVI; assay: Growth inhibition of human LOXIMVI cells at 10 uM incubated for 48 hrs by sulforhodamine B assay relative to control; type: functional; conditions: read-out: GI
# [21] = test system: M14; assay: Growth inhibition of human M14 cells at 10 uM incubated for 48 hrs by sulforhodamine B assay relative to control; type: functional; conditions: M14, 48 h, read-out: GI
# [22] = test system: MDA-MB-435; assay: Growth inhibition of human MDA-MB-435 cells at 10 uM incubated for 48 hrs by sulforhodamine B assay relative to control; type: functional; conditions: MDA-MB-435, 48 h, read-out: GI
# [23] = test system: SK-MEL-28; assay: Growth inhibition of human SK-MEL-28 cells at 10 uM incubated for 48 hrs by sulforhodamine B assay relative to control; type: functional; conditions: SK-MEL-28, 48 h, read-out: GI
# [24] = test system: SK-MEL-5; assay: Growth inhibition of human SK-MEL-5 cells at 10 uM incubated for 48 hrs by sulforhodamine B assay relative to control; type: functional; conditions: SK-MEL-5, 48 h, read-out: GI
# [25] = test system: UACC-257; assay: Growth inhibition of human UACC257 cells at 10 uM incubated for 48 hrs by sulforhodamine B assay relative to control; type: functional; conditions: UACC-257, 48 h, read-out: GI
# [26] = test system: UACC-62; assay: Growth inhibition of human UACC62 cells at 10 uM incubated for 48 hrs by sulforhodamine B assay relative to control; type: functional; conditions: UACC-62, 48 h, read-out: GI
# [27] = test system: IGROV-1; assay: Growth inhibition of human IGROV1 cells at 10 uM incubated for 48 hrs by sulforhodamine B assay relative to control; type: functional; conditions: IGROV-1, 48 h, read-out: GI
# [28] = test system: OVCAR-4; assay: Growth inhibition of human OVCAR4 cells at 10 uM incubated for 48 hrs by sulforhodamine B assay relative to control; type: functional; conditions: OVCAR-4, 48 h, read-out: GI
# [29] = test system: OVCAR-8; assay: Growth inhibition of human OVCAR8 cells at 10 uM incubated for 48 hrs by sulforhodamine B assay relative to control; type: functional; conditions: OVCAR-8, 48 h, read-out: GI
# [30] = test system: NCI/ADR-RES; assay: Growth inhibition of human NCI/ADR-RES cells at 10 uM incubated for 48 hrs by sulforhodamine B assay relative to control; type: functional; conditions: read-out: GI
# [31] = test system: A498; assay: Growth inhibition of human A498 cells at 10 uM incubated for 48 hrs by sulforhodamine B assay relative to control; type: functional; conditions: A498, 48 h, read-out: GI
# [32] = test system: ACHN; assay: Growth inhibition of human ACHN cells at 10 uM incubated for 48 hrs by sulforhodamine B assay relative to control; type: functional; conditions: read-out: GI
# [33] = test system: CAKI-1; assay: Growth inhibition of human Caki1 cells at 10 uM incubated for 48 hrs by sulforhodamine B assay relative to control; type: functional; conditions: CAKI-1, 48 h, read-out: GI
# [34] = test system: SN12C; assay: Growth inhibition of human SN12C cells at 10 uM incubated for 48 hrs by sulforhodamine B assay relative to control; type: functional; conditions: read-out: GI
# [35] = test system: UO-31; assay: Growth inhibition of human UO31 cells at 10 uM incubated for 48 hrs by sulforhodamine B assay relative to control; type: functional; conditions: UO-31, 48 h, read-out: GI
# [36] = test system: PC-3; assay: Growth inhibition of human PC3 cells at 10 uM incubated for 48 hrs by sulforhodamine B assay relative to control; type: functional; conditions: PC-3, 48 h, read-out: GI
# [37] = test system: DU-145; assay: Growth inhibition of human DU145 cells at 10 uM incubated for 48 hrs by sulforhodamine B assay relative to control; type: functional; conditions: DU-145, 48 h, read-out: GI
# [38] = test system: MCF7; assay: Growth inhibition of human MCF7 cells at 10 uM incubated for 48 hrs by sulforhodamine B assay relative to control; type: functional; conditions: MCF7, 48 h, read-out: GI
# [39] = test system: MDA-MB-231; assay: Growth inhibition of human MDA-MB-231 cells at 10 uM incubated for 48 hrs by sulforhodamine B assay relative to control; type: functional; conditions: MDA-MB-231, 48 h, read-out: GI
# [40] = test system: BT-549; assay: Growth inhibition of human BT549 cells at 10 uM incubated for 48 hrs by sulforhodamine B assay relative to control; type: functional; conditions: BT-549, 48 h, read-out: GI
# [41] = test system: T47D; assay: Growth inhibition of human T47D cells at 10 uM incubated for 48 hrs by sulforhodamine B assay relative to control; type: functional; conditions: read-out: GI
# [42] = test system: MDA-MB-468; assay: Growth inhibition of human MDA-MB-468 cells at 10 uM incubated for 48 hrs by sulforhodamine B assay relative to control; type: functional; conditions: MDA-MB-468, 48 h, read-out: GI
# [43] = test system: MCF7; assay: Cytotoxicity against human MCF7 cells expressing VEGFR2 and wild type BRAF measured after 48 hrs by sulforhodamine B assay; type: functional, cell-based; conditions: MCF7, 48 h
# [44] = test system: T47D; assay: Cytotoxicity against human T47D cells expressing wild type BRAF measured after 48 hrs by sulforhodamine B assay; type: functional, cell-based
# [45] = test system: MCF7; assay: Inhibition of VEGFR2 level in human MCF7 cells at 10 uM measured after 48 hrs by ELISA relative to control; type: functional; conditions: MCF7, 48 h
# Chain of Serine/threonine-protein kinase B-raf (P15056 whole entry): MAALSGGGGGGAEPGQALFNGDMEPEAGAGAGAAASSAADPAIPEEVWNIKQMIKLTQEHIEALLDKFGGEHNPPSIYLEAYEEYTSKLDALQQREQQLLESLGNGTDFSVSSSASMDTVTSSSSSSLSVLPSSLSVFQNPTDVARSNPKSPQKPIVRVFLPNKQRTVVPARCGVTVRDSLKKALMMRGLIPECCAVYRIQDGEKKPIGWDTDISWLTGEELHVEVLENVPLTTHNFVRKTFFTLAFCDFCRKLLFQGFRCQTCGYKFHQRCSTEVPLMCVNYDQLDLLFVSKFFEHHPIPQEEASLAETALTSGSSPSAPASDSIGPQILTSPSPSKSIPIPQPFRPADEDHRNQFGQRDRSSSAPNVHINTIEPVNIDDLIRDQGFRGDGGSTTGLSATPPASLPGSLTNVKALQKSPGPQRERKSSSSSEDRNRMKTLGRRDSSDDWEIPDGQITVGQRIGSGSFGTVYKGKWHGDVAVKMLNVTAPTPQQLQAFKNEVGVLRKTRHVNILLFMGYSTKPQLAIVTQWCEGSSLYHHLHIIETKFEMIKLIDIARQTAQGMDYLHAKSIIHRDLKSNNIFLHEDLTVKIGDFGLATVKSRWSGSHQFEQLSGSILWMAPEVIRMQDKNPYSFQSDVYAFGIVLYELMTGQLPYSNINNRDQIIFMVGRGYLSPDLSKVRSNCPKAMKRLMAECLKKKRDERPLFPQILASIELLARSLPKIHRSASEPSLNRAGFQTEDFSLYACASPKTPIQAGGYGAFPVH
# Chain of Vascular endothelial growth factor receptor 2 (P35968 whole entry): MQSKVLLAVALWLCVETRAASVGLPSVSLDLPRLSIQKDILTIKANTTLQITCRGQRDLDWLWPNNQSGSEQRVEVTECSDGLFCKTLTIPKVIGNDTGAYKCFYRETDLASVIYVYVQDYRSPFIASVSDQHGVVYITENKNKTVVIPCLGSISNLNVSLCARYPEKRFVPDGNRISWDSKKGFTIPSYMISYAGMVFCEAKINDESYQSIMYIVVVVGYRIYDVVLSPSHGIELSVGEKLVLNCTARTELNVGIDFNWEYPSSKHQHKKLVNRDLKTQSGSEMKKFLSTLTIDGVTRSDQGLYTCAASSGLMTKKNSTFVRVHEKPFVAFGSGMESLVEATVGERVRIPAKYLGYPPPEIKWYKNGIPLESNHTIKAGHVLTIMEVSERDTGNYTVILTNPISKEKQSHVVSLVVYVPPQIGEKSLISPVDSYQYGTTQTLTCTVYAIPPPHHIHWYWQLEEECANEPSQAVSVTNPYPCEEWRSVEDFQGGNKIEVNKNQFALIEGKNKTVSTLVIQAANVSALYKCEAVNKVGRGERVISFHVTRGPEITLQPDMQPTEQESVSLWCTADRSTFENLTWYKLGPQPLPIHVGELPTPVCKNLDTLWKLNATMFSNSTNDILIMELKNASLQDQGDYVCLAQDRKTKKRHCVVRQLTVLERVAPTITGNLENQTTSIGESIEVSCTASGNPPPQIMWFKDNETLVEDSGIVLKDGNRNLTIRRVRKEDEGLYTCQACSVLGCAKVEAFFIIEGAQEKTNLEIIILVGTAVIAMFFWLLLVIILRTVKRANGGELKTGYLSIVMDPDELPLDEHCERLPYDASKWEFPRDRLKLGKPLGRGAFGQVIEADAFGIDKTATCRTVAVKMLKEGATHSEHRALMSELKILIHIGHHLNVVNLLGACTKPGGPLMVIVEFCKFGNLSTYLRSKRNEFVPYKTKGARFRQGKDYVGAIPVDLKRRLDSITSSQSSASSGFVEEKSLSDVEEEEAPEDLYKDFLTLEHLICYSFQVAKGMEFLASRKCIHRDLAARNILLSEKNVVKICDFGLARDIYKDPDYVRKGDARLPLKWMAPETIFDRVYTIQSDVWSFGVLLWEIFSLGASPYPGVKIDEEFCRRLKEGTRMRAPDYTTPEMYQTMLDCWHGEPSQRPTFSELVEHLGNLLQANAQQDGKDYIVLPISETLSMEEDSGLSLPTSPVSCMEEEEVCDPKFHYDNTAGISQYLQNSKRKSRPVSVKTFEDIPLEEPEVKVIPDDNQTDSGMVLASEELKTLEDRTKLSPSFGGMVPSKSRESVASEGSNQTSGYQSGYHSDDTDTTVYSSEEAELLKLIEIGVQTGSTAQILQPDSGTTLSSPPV
structure (smiles),measurement,setting,value
CCOC(=O)c1ccc(Nc2ccnc(SCC(=O)c3ccc([N+](=O)[O-])cc3)n2)cc1,IC50,[1],0.41 µM
same,IC50,[2],0.22 µM
same,inhibition of growth at 10 µM,[3],49%
same,inhibition of growth at 10 µM,[4],37%
same,inhibition of growth at 10 µM,[5],58%
same,inhibition of growth at 10 µM,[6],54%
same,inhibition of growth at 10 µM,[7],35%
same,inhibition of growth at 10 µM,[8],21%
same,inhibition of growth at 10 µM,[9],27%
same,inhibition of growth at 10 µM,[10],16%
same,inhibition of growth at 10 µM,[11],13%
same,inhibition of growth at 10 µM,[12],11%
same,inhibition of growth at 10 µM,[13],37%
same,inhibition of growth at 10 µM,[14],26%
same,inhibition of growth at 10 µM,[15],13%
same,inhibition of growth at 10 µM,[16],19%
same,inhibition of growth at 10 µM,[17],21%
same,inhibition of growth at 10 µM,[18],28%
same,inhibition of growth at 10 µM,[19],11%
same,inhibition of growth at 10 µM,[20],10%
same,inhibition of growth at 10 µM,[21],16%
same,inhibition of growth at 10 µM,[22],15%
same,inhibition of growth at 10 µM,[23],11%
same,inhibition of growth at 10 µM,[24],41%
same,inhibition of growth at 10 µM,[25],13%
same,inhibition of growth at 10 µM,[26],29%
same,inhibition of growth at 10 µM,[27],19%
same,inhibition of growth at 10 µM,[28],20%
same,inhibition of growth at 10 µM,[29],31%
same,inhibition of growth at 10 µM,[30],27%
same,inhibition of growth at 10 µM,[31],61%
same,inhibition of growth at 10 µM,[32],15%
same,inhibition of growth at 10 µM,[33],16%
same,inhibition of growth at 10 µM,[34],17%
same,inhibition of growth at 10 µM,[35],41%
same,inhibition of growth at 10 µM,[36],33%
same,inhibition of growth at 10 µM,[37],16%
same,inhibition of growth at 10 µM,[38],22%
same,inhibition of growth at 10 µM,[39],22%
same,inhibition of growth at 10 µM,[40],28%
same,inhibition of growth at 10 µM,[41],60%
same,inhibition of growth at 10 µM,[42],51%
same,IC50,[43],16.5 µM
same,IC50,[44],8.09 µM
same,inhibition at 10 µM,[45],80%
